For one test, the system named is S. pyogenes. The experiment in a line: MIC by standard CLSI agar dilution method, macrolide sensitive and resistant S. pyogenes. The class given is cell-based. The following applies: 18 hrs at 37° C.; for MIC S. pyogenes Ery Susc. (801): strain Ery Susc. (801); for MIC S. pyogenes HLermB (3530): strain HLermB (3530), HL is High level resistance; for MIC S. pyogenes ermTR (810/806): strain ermTR (810/806); for MIC S. pyogenes mefA (806/763): strain mefA (806/763). Details: MIC S. pyogenes Ery Susc. (801) / MIC S. pyogenes HLermB (3530): unit not given beside the values. How it is done:
(§1) The antibacterial activities of ketolide compounds of invention were evaluated by determining the minimal inhibitory concentration (MIC) according to standard CLSI agar dilution method. The media used for preculture and main culture were Tryptic Soya broth (Difco) and Mueller Hinton medium (Difco), respectively. The Mueller Hinton agar was supplemented with 5% sheep blood for streptococci and pneumococci, and with haemoglobin as well as NAD (nicotinamide adenine dinucleotide) for Haemophilus influenzae, respectively. Overnight cultures were diluted with buffered saline (pH 7.2) to the final cell density of 5×10^6-10^7 CFU/ml, and each bacterial suspension was applied with a replicator (Denley's multipoint inoculator, UK) onto a series of Mueller-Hinton agar plates containing antibacterial agents at various concentrations. Final inoculum was approximately 10^4 CFU/spot. The plates were incubated for 18 hrs at 37° C. The MIC was defined as the lowest concentration of an antibacterial agent that inhibits the development of visible microbial growth on agar.

A further test concerns S. pneumoniae. The experiment in a line: MIC by standard CLSI agar dilution method, macrolide sensitive and resistant S. pneumoniae. It counts as cell-based. The following applies: 18 hrs at 37° C.; for MIC S. pneumoniae Ery Susc. (49619): strain Ery Susc. (49619); for MIC S. pneumoniae HL-ermB (3773): strain HL-ermB (3773), HL is High level resistance; for MIC S. pneumoniae ermB (786): strain ermB (786); for MIC S. pneumoniae mefA (772): strain mefA (772). How it is done: as §1

With `CC[C@H]1OC(=O)[C@H](C)C(=O)[C@H](C)[C@@H](O[C@@H]2O[C@H](C)C[C@H](N(C)C)[C@H]2O)[C@](C)(OC)C[C@@H](C)C(=O)[C@H](C)[C@H]2N(CCCCn3cnc(-c4cccnc4)c3)C(=O)O[C@]12C` [Telithromycin, reference compound], in the test on S. pyogenes, the “MIC S. pyogenes Ery Susc. (801)” value was 0.03, the “MIC S. pyogenes HLermB (3530)” value is 16.0, the “MIC S. pyogenes ermTR (810/806)” value is 0.03 and the “MIC S. pyogenes mefA (806/763)” value was 0.06. Also, in the test on S. pneumoniae, the “MIC S. pneumoniae Ery Susc. (49619)” value is on record as 0.007, the “MIC S. pneumoniae HL-ermB (3773)” value came to 4.0, the “MIC S. pneumoniae ermB (786)” value was determined as 0.5 and the “MIC S. pneumoniae mefA (772)” value is reported as 1.0.
Regarding “(11S,21R)-3-Decladinosyl-11,12-dideoxy-6-O-methyl-3-oxo-12,11-{oxycarbonyl-[E-amino-(2-(pyrimidin-2-yl)-1,3,4-thiadiazol-5-yl-methyl)oxy-imino-methylene]}-erythromycin A [Example 2]”, in the test on S. pyogenes, the “MIC S. pyogenes Ery Susc. (801)” value is listed as 0.007, the “MIC S. pyogenes HLermB (3530)” value was found to be 0.25, the “MIC S. pyogenes ermTR (810/806)” value was 0.015 and the “MIC S. pyogenes mefA (806/763)” value was 0.06. Also, in the test on S. pneumoniae, the “MIC S. pneumoniae Ery Susc. (49619)” value was determined as 0.007, the “MIC S. pneumoniae HL-ermB (3773)” value is on record as 1.0, the “MIC S. pneumoniae ermB (786)” value is given as 0.06 and the “MIC S. pneumoniae mefA (772)” value turned out to be 0.25.
As to “(11S, 21R)-3-Decladinosyl-11,12-dideoxy-6-O-methyl-3-oxo-12,11-{oxycarbonyl-[E-amino-(2-(pyridin-2-yl)-1,3,4-thiadiazol-5-yl-methyl)oxy-imino-methylene]}-erythromycin A [Example 1]”, in the test on S. pyogenes, the “MIC S. pyogenes Ery Susc. (801)” value is on record as 0.015, the “MIC S. pyogenes HLermB (3530)” value is 0.5, the “MIC S. pyogenes ermTR (810/806)” value came to 0.015 and the “MIC S. pyogenes mefA (806/763)” value is reported as 0.06. For the same compound, in the test with S. pneumoniae, the “MIC S. pneumoniae Ery Susc. (49619)” value came out at 0.007, the “MIC S. pneumoniae HL-ermB (3773)” value worked out at 1.0, the “MIC S. pneumoniae ermB (786)” value is listed as 0.06 and the “MIC S. pneumoniae mefA (772)” value is 0.06.

The values above are taken from US8541420B2, “Ketolide compounds having antimicrobial activity” (priority 2009, dated 2013).
